Experiments:
[1] = system: Bacillus cereus (ATCC 11778); experiment: MIC, NCCLS broth microdilution assay; assay type: cell-based; settings: A = B. cereus ATCC 11778
Procedure, shortened: (§1)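 MICs were determined by broth microdilution following NCCLS documents M7-A4, M11-A4 and M27-T. The antifungal assay followed the method in the Manual of Clinical Microbiology (1995).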

[2] = system: Staphylococcus aureus (ATCC 13709, a methicillin sensitive strain (MSSA)); experiment: MIC, NCCLS broth microdilution assay; assay type: cell-based; settings: E = S. aureus ATCC 13709
Procedure, shortened: as §1

[3] = system: Staphylococcus aureus (ATCC 27660, a methicillin resistant strain (MRSA)); experiment: MIC, NCCLS broth microdilution assay; assay type: cell-based; settings: F = S. aureus ATCC 27660
Procedure, shortened: as §1

[4] = system: Candida albicans (ATCC 38247); experiment: Antifungal MIC assay; assay type: cell-based; settings: B = C. albicans ATCC 38247
Procedure, shortened: as §1

E. faecalis ATCC 29212 = experiment: MIC, NCCLS broth microdilution assay; assay type: cell-based, Enterococcus faecalis; settings: C = E. faecalis ATCC 29212
Procedure, shortened: (§2)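 Broth microdilution per NCCLS M7-A4 (1997) guidelines; MIC recorded as minimal inhibitory concentration.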

S. pneumoniae ATCC 49619 = experiment: MIC, NCCLS broth microdilution assay; assay type: cell-based, Streptococcus pneumoniae; settings: H = S. pneumoniae ATCC 49619
Procedure, shortened: as §2

| Structure (SMILES) | Minimum Inhibitory Concentration (MIC) [1] | Minimum Inhibitory Concentration (MIC) [2] | Minimum Inhibitory Concentration (MIC) [3] | Minimum Inhibitory Concentration (MIC) [4] | Minimum Inhibitory Concentration (MIC) (E. faecalis ATCC 29212) | Minimum Inhibitory Concentration (MIC) (S. pneumoniae ATCC 49619) |
| --- | --- | --- | --- | --- | --- | --- |
| Cn1cc(NC(=O)c2cc(NC(=O)c3cc(NC(=O)c4ccc(F)cc4F)cn3C)cn2C)cc1C(=O)NCC[N+]1(C)CCOCC1 [Compound B-30] | +++ (+++ = MIC ≦ 4) | +++ (+++ = MIC ≦ 4) | +++ (+++ = MIC ≦ 4) | + (+ = 12 ≦ MIC ≦ 32) | >32 µg/mL | +++ (+++ = MIC ≦ 4) |
| Cn1cc(NC(=O)c2cc(NC(=O)c3cc(NC(=O)c4ccc(F)cc4)cn3C)cn2C)cc1C(=O)NCCN1CCOCC1 [Compound B-32] | + (+ = 12 ≦ MIC ≦ 32) | ++ (++ = 4 < MIC < 12) | + (+ = 12 ≦ MIC ≦ 32) | >32 µg/mL | ++ (++ = 4 < MIC < 12) | ++ (++ = 4 < MIC < 12) |
| Cn1cc(NC(=O)c2cc(NC(=O)c3ccc(F)cc3)cn2C)cc1C(=O)NCCN1CCSCC1 [Compound B-33] | + (+ = 12 ≦ MIC ≦ 32) | ++ (++ = 4 < MIC < 12) | + (+ = 12 ≦ MIC ≦ 32) | >32 µg/mL | ++ (++ = 4 < MIC < 12) | +++ (+++ = MIC ≦ 4) |
| Cn1cc(NC(=O)c2cc(NC(=O)c3cc(NC(=O)c4ccc(F)cc4)cn3C)cn2C)cc1C(=O)NCCN1CCSCC1 [Compound B-34] | +++ (+++ = MIC ≦ 4) | +++ (+++ = MIC ≦ 4) | +++ (+++ = MIC ≦ 4) | >32 µg/mL | +++ (+++ = MIC ≦ 4) | +++ (+++ = MIC ≦ 4) |
| Cn1cc(NC(=O)c2cc(NC(=O)c3cc(NC(=O)c4cc(NC(=O)c5ccc(F)cc5)cn4C)cn3C)cn2C)cc1C(=O)NCCN1CCSCC1 [Compound B-35] | +++ (+++ = MIC ≦ 4) | +++ (+++ = MIC ≦ 4) | +++ (+++ = MIC ≦ 4) | >32 µg/mL | +++ (+++ = MIC ≦ 4) | +++ (+++ = MIC ≦ 4) |
| Cn1cc(NC(=O)c2cc(NC(=O)c3cc(NC(=O)c4cc(NC(=O)c5ccc(F)cc5)cn4C)cn3C)cn2C)cc1C(=O)NCCN1CCOCC1 [Compound B-37] | +++ (+++ = MIC ≦ 4) | +++ (+++ = MIC ≦ 4) | >32 µg/mL | >32 µg/mL | +++ (+++ = MIC ≦ 4) | +++ (+++ = MIC ≦ 4) |
| Cn1cc(NC(=O)c2cc(NC(=O)c3cc(NC(=O)c4ccccc4F)cn3C)cn2C)cc1C(=O)NCCN1CCOCC1 [Compound B-39] | +++ (+++ = MIC ≦ 4) | +++ (+++ = MIC ≦ 4) | ++ (++ = 4 < MIC < 12) | >32 µg/mL | +++ (+++ = MIC ≦ 4) | +++ (+++ = MIC ≦ 4) |
| Cn1cc(NC(=O)c2cc(NC(=O)c3ccccc3F)cn2C)cc1C(=O)NCCN1CCSCC1 [Compound B-40] | ++ (++ = 4 < MIC < 12) | ++ (++ = 4 < MIC < 12) | ++ (++ = 4 < MIC < 12) | >32 µg/mL | +++ (+++ = MIC ≦ 4) | +++ (+++ = MIC ≦ 4) |
| Cn1cc(NC(=O)c2cc(NC(=O)c3cc(NC(=O)c4cc(NC(=O)c5ccccc5F)cn4C)cn3C)cn2C)cc1C(=O)NCCN1CCSCC1 [Compound B-42] | +++ (+++ = MIC ≦ 4) | +++ (+++ = MIC ≦ 4) | +++ (+++ = MIC ≦ 4) | >32 µg/mL | +++ (+++ = MIC ≦ 4) | +++ (+++ = MIC ≦ 4) |
| Cn1cc(NC(=O)c2cc(NC(=O)c3ccccc3F)cn2C)cc1C(=O)NCCN1CCOCC1 [Compound B-43] | + (+ = 12 ≦ MIC ≦ 32) | + (+ = 12 ≦ MIC ≦ 32) | + (+ = 12 ≦ MIC ≦ 32) | >32 µg/mL | + (+ = 12 ≦ MIC ≦ 32) | + (+ = 12 ≦ MIC ≦ 32) |
| Cn1cc(NC(=O)c2cc(NC(=O)c3cc(NC(=O)c4cc(NC(=O)c5ccccc5F)cn4C)cn3C)cn2C)cc1C(=O)NCCN1CCOCC1 [Compound B-44] | +++ (+++ = MIC ≦ 4) | +++ (+++ = MIC ≦ 4) | ++ (++ = 4 < MIC < 12) | >32 µg/mL | ++ (++ = 4 < MIC < 12) | +++ (+++ = MIC ≦ 4) |
| Cn1cc(NC(=O)c2cc(NC(=O)c3cc(NC(=O)c4ccc(F)cc4NCCCNC4CCCCC4)cn3C)cn2C)cc1C(N)=O [Compound B-51] | ++ (++ = 4 < MIC < 12) | ++ (++ = 4 < MIC < 12) | + (+ = 12 ≦ MIC ≦ 32) | >32 µg/mL | >32 µg/mL | + (+ = 12 ≦ MIC ≦ 32) |
| Cn1cc(NC(=O)c2cc(NC(=O)c3ccc(Cl)c(Cl)c3)cn2C)cc1C(=O)NCCN1CCOCC1 [Compound B-54] | ++ (++ = 4 < MIC < 12) | +++ (+++ = MIC ≦ 4) | ++ (++ = 4 < MIC < 12) | >32 µg/mL | ++ (++ = 4 < MIC < 12) | +++ (+++ = MIC ≦ 4) |
| Cn1cc(NC(=O)c2cc(NC(=O)c3cc(NC(=O)c4ccc(Cl)cc4NCCCNC4CCCCC4)cn3C)cn2C)cc1C(N)=O [Compound B-63] | + (+ = 12 ≦ MIC ≦ 32) | +++ (+++ = MIC ≦ 4) | +++ (+++ = MIC ≦ 4) | >32 µg/mL | >32 µg/mL | +++ (+++ = MIC ≦ 4) |
| Cn1cc(NC(=O)c2cc(NC(=O)c3cc(NC(=O)c4ccc(Cl)cc4NCCN4CCCCC4)cn3C)cn2C)cc1C(N)=O [Compound B-65] | ++ (++ = 4 < MIC < 12) | + (+ = 12 ≦ MIC ≦ 32) | ++ (++ = 4 < MIC < 12) | >32 µg/mL | + (+ = 12 ≦ MIC ≦ 32) | ++ (++ = 4 < MIC < 12) |
| Cn1cc(NC(=O)c2cc(NC(=O)c3ccc(C#N)cc3)cn2C)cc1C(=O)NCCN1CCOCC1 [Compound B-69] | + (+ = 12 ≦ MIC ≦ 32) | + (+ = 12 ≦ MIC ≦ 32) | >32 µg/mL | >32 µg/mL | + (+ = 12 ≦ MIC ≦ 32) | +++ (+++ = MIC ≦ 4) |
| Cn1cc(NC(=O)c2cc(NC(=O)c3cc(NC(=O)c4ccc(F)cc4F)cn3C)cn2C)cc1C(=O)NCCc1ccccn1 [Compound B-82] | +++ (+++ = MIC ≦ 4) | +++ (+++ = MIC ≦ 4) | +++ (+++ = MIC ≦ 4) | >32 µg/mL | +++ (+++ = MIC ≦ 4) | +++ (+++ = MIC ≦ 4) |

From US7348427B2, “Antipathogenic benzamide compounds” (Genesoft Pharmaceuticals, Inc., priority 2001, dated 2008)
